Reference: patent publication US20020016384A1, “Hydrolysis-stable and polymerizable acrylophosphonic acid” (Ivoclar Vivadent AG., priority 2000, published 2002)

How the values were obtained:
[1] = Investigation of the solubility in water and organic solvents; assay type: physicochemical
From the text: The solubility of monomers 3 and 5 and of a comparison monomer (comparison monomer 2; X=COO, Z=H) in water, ethanol, acetone, methylene chloride and ethyl acetate was investigated.
Solubility: ++: very good (>20 wt.-%), +: good (10-20 wt.-%), 0: practically insoluble (<1 wt.-%). [drawing 25]

[2] = Investigation of the hydrolytic stability by 1H-NMR; assay type: physicochemical; details: 20% solution in 1:1 water/ethanol; for change in the 1H-NMR spectrum (hydrolytic stability): stored at 37° C., 12-week investigation period, spectrum recorded weekly
Description: Monomers 3 and 5 are each dissolved in a 1:1 mixture of water and ethanol and stored as 20% solution at 37° C. The ^1H-NMR spectrum of the solution is recorded weekly.

| Compound | Solubility in acetone [1] | Solubility in ethanol [1] | Solubility in ethyl acetate [1] | Solubility in methylene chloride [1] | Solubility in water [1] | change in the 1H-NMR spectrum (hydrolytic stability) [2] | hydrolytic elimination of the ethoxy group ([2]; 37° C., after 3 months, 1H-NMR) [%] |
| --- | --- | --- | --- | --- | --- | --- | --- |
| C=C(COCCP(=O)(O)O)C(=O)O [Comparison monomer 2, reference compound] | 0 (practically insoluble (<1 wt.-%)) | 0 (practically insoluble (<1 wt.-%)) | 0 (practically insoluble (<1 wt.-%)) | 0 (practically insoluble (<1 wt.-%)) | ++ (very good (>20 wt.-%)) |  |  |
| C=C(COCCP(=O)(O)O)C(=O)N(CC)CC [Monomer 3, 2-[4-(dihydroxyphosphoryl)-2-oxabutyl]-acrylic acid diethylamide] | ++ (very good (>20 wt.-%)) | ++ (very good (>20 wt.-%)) | ++ (very good (>20 wt.-%)) | ++ (very good (>20 wt.-%)) | ++ (very good (>20 wt.-%)) | no change in the spectrum |  |
| C=C(C#N)COCCP(=O)(O)O [Monomer 5, 2-[4-(dihydroxyphosphoryl)-2-oxabutyl]-acrylonitrile] | ++ (very good (>20 wt.-%)) | ++ (very good (>20 wt.-%)) | ++ (very good (>20 wt.-%)) | ++ (very good (>20 wt.-%)) | ++ (very good (>20 wt.-%)) | no change in the spectrum |  |
| C=C(COCCP(=O)(OC)OC)C(=O)OCC [comparison monomer 1, 2-[4-(dimethoxyphosphoryl)-2-oxa-butyl]-acrylic acid ethyl ester, reference compound] |  |  |  |  |  |  | 20 |
